In ChEMBL document CHEMBL1201862, “PubChem BioAssay data set” (2004):
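96-well plates; 48 h exposure; 5 concentrations. Endpoints by linear interpolation between flanking doses. Not reached: highest tested concentration assigned. Here, GI50 denotes the concentration required for 50% inhibition of growth.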 Active and inactive are the calls of the source. Rule as the data show it: active = GI50 up to about 1.1 µM and inactive = higher.

Tests used:
Assay in all cases: inhibition of tumour cell growth, NCI panel, 48 h
[1] = system: OVCAR-3
[2] = system: KM12
[3] = system: MCF7
[4] = system: SK-MEL-5
[5] = system: RXF 393
[6] = system: SNB-19
[7] = system: ACHN
[8] = system: SK-OV-3
[9] = system: EKVX
[10] = system: OVCAR-4
[11] = system: SNB-75
[12] = system: 786-0
[13] = system: HCT-116
[14] = system: CAKI-1
[15] = system: HOP-92
[16] = system: NCI-H522
[17] = system: SNB-78
[18] = system: COLO 205
[19] = system: HT-29
[20] = system: SN12C

Row | Compound | GI50 [1] | GI50 [2] | GI50 [3] | GI50 [4] | GI50 [5] | GI50 [6] | GI50 [7] | GI50 [8] | GI50 [9] | GI50 [10] | GI50 [11] | GI50 [12] | GI50 [13] | GI50 [14] | GI50 [15] | GI50 [16] | GI50 [17] | GI50 [18] | GI50 [19] | GI50 [20]
1 | CN(C)CCCn1c2c3ccccc3ccc2c2oc(=O)c3ccccc3c21 | 5.48 µM (inactive) | 3.83 µM (inactive) | 7.19 µM (inactive) | 9.53 µM (inactive) | 1.33 µM (inactive) | 5.96 µM (inactive) | 6.79 µM (inactive) | 14.8 µM (inactive) | 12.7 µM (inactive) | 6.38 µM (inactive) | 2.48 µM (inactive) | 2.64 µM (inactive) | 2.48 µM (inactive) | 7.76 µM (inactive) | 23.8 µM (inactive) | 3.52 µM (inactive) | 13.6 µM (inactive) | 2.48 µM (inactive) | 5.53 µM (inactive) | 5.62 µM (inactive)
2 | O=C1c2cccc(NCCNCCO)c2C(=O)c2cccc(NCCNCCO)c21 | 1.57 µM (inactive) | 0.792 µM (active) | 0.39 µM (active) | 1.69 µM (inactive) | 1.59 µM (inactive) | 0.897 µM (active) | 2.55 µM (inactive) | 2.26 µM (inactive) | 1.78 µM (inactive) | 0.889 µM (active) | 1.03 µM (active) | 0.665 µM (active) | 0.43 µM (active) | 0.64 µM (active) | 0.507 µM (active) | 0.312 µM (active) | 1.52 µM (inactive) | 0.661 µM (active) | 0.52 µM (active) | 0.782 µM (active)
3 | O=C1NC(=S)NC(=O)C1=C(O)Nc1ccccc1 | 25.5 µM (inactive) | 36.6 µM (inactive) | 19.1 µM (inactive) | 21.5 µM (inactive) | 33.2 µM (inactive) | 25.8 µM (inactive) | 23.6 µM (inactive) | 38.9 µM (inactive) | 35.7 µM (inactive) | 34.6 µM (inactive) | 27.7 µM (inactive) | 28.1 µM (inactive) | 29.1 µM (inactive) | 20.8 µM (inactive) | 8.34 µM (inactive) | 21.7 µM (inactive) | 44.1 µM (inactive) | 27.4 µM (inactive) | 47.4 µM (inactive) | 25.8 µM (inactive)
4 | Cn1c(-c2ccccc2)cc(-c2cccs2)c1-c1cccs1 | > 100 µM (inactive) | 22.3 µM (inactive) | 24 µM (inactive) | 45.3 µM (inactive) | > 81.3 µM (inactive) | > 100 µM (inactive) | – | > 100 µM (inactive) | 34.2 µM (inactive) | > 96.4 µM (inactive) | > 100 µM (inactive) | – | > 100 µM (inactive) | > 100 µM (inactive) | > 29.2 µM (inactive) | > 64.6 µM (inactive) | > 100 µM (inactive) | 82.6 µM (inactive) | 51.2 µM (inactive) | > 100 µM (inactive)
5 | Cc1ccc(NC(=O)C(=O)CC(=O)c2c(C)[n+]([O-])c3ccccc3[n+]2[O-])cc1C | 48.4 µM (inactive) | > 100 µM (inactive) | – | > 100 µM (inactive) | 44.7 µM (inactive) | 47.3 µM (inactive) | > 100 µM (inactive) | > 100 µM (inactive) | > 100 µM (inactive) | > 100 µM (inactive) | > 100 µM (inactive) | > 100 µM (inactive) | > 100 µM (inactive) | > 100 µM (inactive) | > 100 µM (inactive) | 66.2 µM (inactive) | > 100 µM (inactive) | 43.7 µM (inactive) | > 100 µM (inactive) | > 100 µM (inactive)
6 | O=C1c2cccc(NCCCNCCO)c2C(=O)c2cccc(NCCCNCCO)c21 | 3.05 µM (inactive) | 2.12 µM (inactive) | 0.325 µM (active) | 2 µM (inactive) | 2.13 µM (inactive) | 1.15 µM (inactive) | 2.08 µM (inactive) | 2.25 µM (inactive) | 2.94 µM (inactive) | – | – | 2.08 µM (inactive) | – | – | 1.55 µM (inactive) | 0.373 µM (active) | 3.46 µM (inactive) | 1.8 µM (inactive) | 2.02 µM (inactive) | 0.935 µM (active)
7 | COc1ccc2[nH]c(=O)cc(C)c2c1[N+](=O)[O-] | > 100 µM (inactive) | > 100 µM (inactive) | – | > 100 µM (inactive) | > 10 µM (inactive) | > 100 µM (inactive) | > 100 µM (inactive) | > 100 µM (inactive) | 82 µM (inactive) | > 100 µM (inactive) | 10.5 µM (inactive) | > 100 µM (inactive) | > 100 µM (inactive) | 31.7 µM (inactive) | 32.4 µM (inactive) | 47.4 µM (inactive) | > 100 µM (inactive) | > 100 µM (inactive) | > 100 µM (inactive) | > 100 µM (inactive)
